Data from patent US7700584B2 (Hangzhou Minsheng Pharmaceuticals Co., Ltd., priority 2004, dated 2010).
Where a name gives a salt, the structure may show the parent alone. Read-outs that look alike come from different tables or passages of the source.

What was measured:
[1] = system: U-937 human histocytic lymphoma; experiment: In vitro inhibition rate to tumor cells (MTT), U-937; type: cell-based; conditions: for inhibition at 50 µg/mL: Homo sapiens, U-937, 50 μg/ml, read-out: inhibition rate, Results (%) U-937; for inhibition rate, Results (%) U-937: 50 μg/ml
[2] = system: A-549 human lung adenocarcinoma; experiment: In vitro inhibition rate to tumor cells (MTT), A-549; type: cell-based; conditions: for inhibition at 50 µg/mL: Homo sapiens, A549, 50 μg/ml, read-out: inhibition rate, Results (%) A-549
[3] = system: Bel-7402 human hepatic carcinoma; experiment: In vitro inhibition rate to tumor cells (MTT), Bel-7402; type: cell-based; conditions: for inhibition at 50 µg/mL: Homo sapiens, Bel-7402, 50 μg/ml, read-out: inhibition rate, Results (%) Bel-7402; for inhibition rate, Results (%) Bel-7402: 50 μg/ml
[4] = system: MCF-7 human mammary adenocarcinoma; experiment: In vitro inhibition rate to tumor cells (MTT), MCF-7; type: cell-based; conditions: Homo sapiens, MCF7, 50 μg/ml, read-out: inhibition rate, Results (%) MCF-7
[5] = system: SMMC-7721 human hepatic carcinoma; experiment: In vitro inhibition rate to tumor cells (MTT), SMMC-7721; type: cell-based; conditions: for inhibition at 50 µg/mL: Homo sapiens, SMMC-7721, 50 μg/ml, read-out: inhibition rate, Results (%) SMMC-7721
[6] = system: HL-60 human promyelocytic leukemia; experiment: In vitro inhibition rate to tumor cells (MTT), HL-60; type: cell-based; conditions: for inhibition at 50 µg/mL: Homo sapiens, HL-60, 50 μg/ml, read-out: inhibition rate, Results (%) HL-60; for inhibition rate, Results (%) HL-60: 50 μg/ml
[7] = system: Hela human cervical carcinoma; experiment: In vitro inhibition rate to tumor cells (MTT), Hela; type: cell-based; conditions: Homo sapiens, HeLa, 50 μg/ml, read-out: inhibition rate, Results (%) Hela
[8] = system: LLC mouse Lewis lung carcinoma; experiment: In vitro inhibition rate to tumor cells (MTT), LLC; type: cell-based; conditions: 50 μg/ml; for inhibition at 50 µg/mL: Mus musculus, Lewis lung carcinoma
[9] = biological target: T1, HIV-1 proteinase (HIV-1 PR) (Human immunodeficiency virus type 1 group M subtype B, UniProt P04585); experiment: Screening for in vitro activity against HIV-1 proteinase; type: biochemical
T1 construct: HIV-1 proteinase digests the fluorescent-labeled substrate; purchased
Experimental: Principle of the test: HIV-1 proteinase digests the fluorescent-labeled substrate in an optimal reaction condition and system. The activity of the enzyme can be reflected by the fluorescent intensity in the product of the enzyme reaction. Adding a sample into the reaction system can be used for screening the inhibitor of the enzyme.
1. HIV-1 PR: commercially available, stored at −85° C.
2. Treatment of the samples: Before use, sample was dissolved in DMSO at a suitable concentration, then serially diluted (5×) with double distilled water, five serial dilutions per sample.
3. Positive control: indinavir, purchased from […].
4. Methods: The diluted sample was added into the reaction buffer containing the fluorescent-labeled substrate. Then the genetic engineered target enzyme was added, and incubated in the optimal reaction condition. The fluorescent value was measured with a FLUO star Galaxy luminoscope.

[10] = biological target: T2, HIV-1 reverse transcriptase (Human immunodeficiency virus type 1 group M subtype B, UniProt P04585); experiment: Screening for the in vitro activity against the HIV-1 reverse transcriptase; type: biochemical
T2 construct: purchased
Experimental: Principle of the test: The template to which the HIV-1 reverse transcriptase interacts was covered onto the enzyme-lined template. In the optimal reaction conditions and system, HIV-1 RT will put the substrate comprising Biotin-dUTP onto the reaction template. The activity of the enzyme was measured as the amount of the integrating Biotin-dUTP in the reaction by using streptavidin-labeled horseradish peroxidase. Adding the sample to the reaction system can identify inhibitor of the enzyme.
1. HIV-1 RT: commercially available.
2. Treatment of the samples: Before use, the sample was dissolved in DMSO at a suitable concentration, then serially diluted (5×) with double distilled water, five serial dilutions per sample.
4. Methods: The diluted sample was added into the reaction buffer containing Biotin-dUTP and the genetic engineered target enzyme, and incubated in the optimal reaction conditions. A streptavidin-labeled horseradish peroxidase was added to visual the system, and OD450 was measured.

[11] = biological target: T3, HIV-1 integrase (HIV-1 IN) (Human immunodeficiency virus type 1 group M subtype B, UniProt P04585); experiment: Screening for the activity against HIV-1 integrase; type: biochemical
T3 construct: a purified HIV-1 integrase was added into each well; purchased
Experimental: Principle of the test: A synthetic oligonucleotide of 30 nt was used as the donor substrate. A synthetic oligonucleotide of 20 nt was used as the target substrate. A 96-well plate was covered by the donor substrate, and a purified HIV-1 integrase was added into each well. ELISA was performed to measure the product of the target DNA chain transfer. A biotin-labeled alkali phosphatase was used to visual the system. OD value was measured by an Enzyme-linked Detector. Add a sample into the reaction system for screening the inhibitor of the enzyme.
1. HIV-1 IN: commercially available.
2. Treatment of the samples: Before use, the sample was dissolved in water or DMSO at a suitable concentration, then serially diluted (5×), four serial dilutions per sample. The stock solutions of two samples were 100-fold diluted with DMSO, then 5-fold diluted, four serial dilutions per sample. Positive control: S-y, provided by Shanghai Organic Chemistry Institute.
3. The donor substrate and target substrate: synthesized by Shanghai Biological Engineering Company (Shanghai Shenggong).
4. Methods: The diluted sample was added into a 96-well plate covered by the donor substrate, and then added into the reaction buffer containing the genetic engineered target enzyme and biotin-target substrate, incubated in the optimal reaction conditions. A biotin-labeled alkali phosphatase was used to visual the system to determine the absorbance at 450 nm (OD450).

Hepatitis B virus (HBV) = type: cell-based
HepG2 cells = experiment: Cell status of HepG2 cells treated with sample (HBV screening); type: cell-based; conditions: 200 μg/ml, HepG2, four days after infection
MDCK (dog kidney) cells = experiment: Toxicity TC50 of the samples in MDCK cells (influenza screening); conditions: concentration of 50% toxicity, given as dilution of the stock solution

**Q.** For `CC(C)C1CC23OC1(O)C/C(=C\Nc1ccc(O)cc1)C2CCC3C` (centres unmarked) (as salt: hydrochloride) [Compound 6, Curcumol p-hydroxy aniline hydrochloride], which melting point is on record?
**A.** 147.5 to 149.5 °C

**Q.** For `CC(C)C1CC23OC1(O)CC(=CN1CCNCC1)C2CCC3C` (centres unmarked) (as salt: hydrochloride) [Compound 8, Curcumol piperazine hydrochloride], which melting point is on record?
**A.** 150 to 152 °C

**Q.** For `CC(C)C1CC23OC1(O)C/C(=C\NC(C)(C)C)C2CCC3C` (centres unmarked) (as salt: hydrochloride) [Compound 16, Curcumol t-butyl amine hydrochloride], which melting point is on record?
**A.** 115 to 116 °C

**Q.** Which inhibition at 50 µg/mL ([1]; Table 1) does the source give for `C=C1CC2(OC(=O)CCC)OC3(CC2C(C)C)C(C)CCC13` (centres unmarked) [Compound 2, Curcumol butyrate] here?
**A.** 71.2%

**Q.** And the inhibition at 50 µg/mL ([1]; Table 2 (repeated screening))?
**A.** 70.3%

**Q.** And the inhibition at 50 µg/mL ([2]; Table 1)?
**A.** 4.93%

**Q.** What about the inhibition at 50 µg/mL ([2]; Table 2 (repeated screening)) of the same compound?
**A.** 9.23%

**Q.** What about the inhibition at 50 µg/mL ([3]; Table 1) of the same compound?
**A.** 23.3%

**Q.** What about the inhibition at 50 µg/mL ([3]; Table 2 (repeated screening)) of the same compound?
**A.** 12.8%

**Q.** And the inhibition at 50 µg/mL ([4]; Table 1)?
**A.** 46%

**Q.** And the inhibition at 50 µg/mL ([4]; Table 2 (repeated screening))?
**A.** 41.8%

**Q.** What about the inhibition at 50 µg/mL ([5]; Table 1) of the same compound?
**A.** 12.3%

**Q.** What about the inhibition at 50 µg/mL ([5]; Table 2 (repeated screening)) of the same compound?
**A.** 14.7%

**Q.** And the inhibition at 50 µg/mL ([6]; Table 1)?
**A.** 12.3%

**Q.** And the inhibition at 50 µg/mL ([6]; Table 2 (repeated screening))?
**A.** 18%

**Q.** And the inhibition at 50 µg/mL ([7]; Table 1)?
**A.** 70.6%

**Q.** And the inhibition at 50 µg/mL ([7]; Table 2 (repeated screening))?
**A.** 75.2%

**Q.** And the inhibition at 50 µg/mL ([8]; Table 1)?
**A.** 2.98%

**Q.** And the inhibition at 50 µg/mL ([8]; Table 2 (repeated screening))?
**A.** 0.32%

**Q.** And the inhibition at 0.08 µg/mL ([9]; 0.08 μg/ml, read-out: Inhibition rate)?
**A.** 4.13%

**Q.** What about the inhibition at 0.4 µg/mL ([9]; 0.40 μg/ml, read-out: Inhibition rate) of the same compound?
**A.** 8.64%

**Q.** And the inhibition at 2 µg/mL ([9]; 2.0 μg/ml, read-out: Inhibition rate)?
**A.** 2.98%

**Q.** What about the inhibition at 10 µg/mL ([9]; 10 μg/ml, read-out: Inhibition rate) of the same compound?
**A.** 12.2%

**Q.** What about the IC50 ([9]; IC50, five 5× serial dilutions from 50 μg/ml) of the same compound?
**A.** > 163 µM

**Q.** And the inhibition at 50 µg/mL ([9]; read-out: Inhibition rate, 50 μg/ml)?
**A.** 12.7%

**Q.** And the “inhibition rate of HIV-1 reverse transcriptase” value ([10]; 120 ug/ml)?
**A.** 60%

**Q.** What about the IC50 ([10]; IC50, initial concentration 1/150 of the stock solution) of the same compound?
**A.** < 392 µM

**Q.** And the IC50 [11]?
**A.** 116 µM

**Q.** What about the “(Value of the positive control - Measured Value) Value of the positive control × 100%” value (Hepatitis B virus (HBV); 200 μg/ml, decrease of HBeAg relative to positive control) of the same compound?
**A.** 68.34%

**Q.** And the “OD450 of HBeAg” value (Hepatitis B virus (HBV); 200 μg/ml, supernatant four days after infection, positive control 1.917, negative 0.057)?
**A.** 0.607

**Q.** What about the “activity against HBV (in words)” value (Hepatitis B virus (HBV); primary screening, HBV e antigen, HepG2, 13 samples) of the same compound?
**A.** had the activity against HBV

**Q.** And the Cell status (HepG2 cells)?
**A.** Normal

**Q.** What about the TC50 (MDCK (dog kidney) cells) of the same compound?
**A.** 1/12150 of the stock solution

**Q.** With `CC(C)C1CC23OC1(O)C/C(=C\NC(C)(C)C)C2CCC3C` (centres unmarked) [Compound 15, Curcumol t-butyl amine] as the compound, how does the “inhibition rate, Results (%) U-937” value ([1]; Table 1) read?
**A.** 57.32%

**Q.** And the “inhibition rate, Results (%) U-937” value ([1]; Table 2 (repeated screening))?
**A.** 50.12%

**Q.** What about the “inhibition rate, Results (%) A-549” value ([2]; 50 μg/ml, Table 1) of the same compound?
**A.** 17.43%

**Q.** And the inhibition at 50 µg/mL ([2]; Table 2 (repeated screening))?
**A.** 12.3%

**Q.** What about the “inhibition rate, Results (%) Bel-7402” value ([3]; Table 1) of the same compound?
**A.** 32.98%

**Q.** What about the “inhibition rate, Results (%) Bel-7402” value ([3]; Table 2 (repeated screening)) of the same compound?
**A.** 31.20%

**Q.** And the inhibition at 50 µg/mL ([4]; Table 1)?
**A.** 65.3%

**Q.** And the inhibition at 50 µg/mL ([4]; Table 2 (repeated screening))?
**A.** 60.1%

**Q.** What about the “inhibition rate, Results (%) SMMC-7721” value ([5]; 50 μg/ml, Table 2 (repeated screening)) of the same compound?
**A.** −8.60%

**Q.** And the inhibition at 50 µg/mL ([5]; Table 1)?
**A.** -2.5%

**Q.** And the “inhibition rate, Results (%) HL-60” value ([6]; Table 1)?
**A.** 8.23%

**Q.** What about the “inhibition rate, Results (%) HL-60” value ([6]; Table 2 (repeated screening)) of the same compound?
**A.** 2.98%

**Q.** And the inhibition at 50 µg/mL ([7]; Table 1)?
**A.** 70%

**Q.** What about the inhibition at 50 µg/mL ([7]; Table 2 (repeated screening)) of the same compound?
**A.** 71.4%

**Q.** And the “inhibition rate, Results (%) LLC” value ([8]; Table 1)?
**A.** −11.83%

**Q.** What about the “inhibition rate, Results (%) LLC” value ([8]; Table 2 (repeated screening)) of the same compound?
**A.** −10.12%

**Q.** What about the melting point of the same compound?
**A.** 79 to 80 °C
